Assay results: ChEMBL document CHEMBL1949541, “Discovery of 7-arylsulfonyl-1,2,3,4, 4a,9a-hexahydro-benzo[4,5]furo[2,3-c]pyridines: identification of a potent and selective 5-HT₆ receptor antagonist showing activity in rat social recognition test” (Bioorg Med Chem Lett, 2012)
pIC50, pKi: −log10 of the molar value.

What was measured:
[1] = biological target: T1, 5-hydroxytryptamine receptor 6 (Homo sapiens, UniProt P50406); test: Displacement of [3H]LSD from human recombinant 5HT6 receptor
[2] = Oral bioavailability in rat; type: ADME, organism-based; settings: in vivo
[3] = Half life in mouse liver microsomes; type: ADME, Microsome
[4] = Half life in dog liver microsomes; type: ADME, Canis lupus familiaris, Microsome
[5] = Half life in rat liver microsomes; type: ADME, Microsome
[6] = Half life in human liver microsomes; type: ADME, Microsome
[7] = biological target: T1, 5-hydroxytryptamine receptor 6; test: Antagonist activity at human 5HT6 receptor expressed in human astrocytoma cells assessed as inhibition of cAMP production; type: functional, cell-based
[8] = biological target: 5-hydroxytryptamine receptor 6 (Rattus norvegicus, UniProt P31388); test: Displacement of [3H]LSD from rat recombinant 5HT6 receptor
5-hydroxytryptamine receptor 6 (Rattus norvegicus, UniProt P31388), sequence (P31388 whole entry): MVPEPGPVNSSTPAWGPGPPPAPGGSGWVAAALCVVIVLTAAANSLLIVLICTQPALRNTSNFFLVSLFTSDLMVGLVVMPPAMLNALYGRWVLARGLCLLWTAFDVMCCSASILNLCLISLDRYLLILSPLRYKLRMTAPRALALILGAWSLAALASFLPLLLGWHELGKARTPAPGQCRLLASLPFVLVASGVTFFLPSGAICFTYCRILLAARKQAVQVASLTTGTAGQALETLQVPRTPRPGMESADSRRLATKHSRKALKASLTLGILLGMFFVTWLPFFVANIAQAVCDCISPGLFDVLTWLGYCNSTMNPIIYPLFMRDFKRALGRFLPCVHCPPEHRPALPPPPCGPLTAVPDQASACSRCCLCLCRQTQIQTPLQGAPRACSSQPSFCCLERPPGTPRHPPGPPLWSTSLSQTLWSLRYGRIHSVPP

T1 sequence (P50406 whole entry): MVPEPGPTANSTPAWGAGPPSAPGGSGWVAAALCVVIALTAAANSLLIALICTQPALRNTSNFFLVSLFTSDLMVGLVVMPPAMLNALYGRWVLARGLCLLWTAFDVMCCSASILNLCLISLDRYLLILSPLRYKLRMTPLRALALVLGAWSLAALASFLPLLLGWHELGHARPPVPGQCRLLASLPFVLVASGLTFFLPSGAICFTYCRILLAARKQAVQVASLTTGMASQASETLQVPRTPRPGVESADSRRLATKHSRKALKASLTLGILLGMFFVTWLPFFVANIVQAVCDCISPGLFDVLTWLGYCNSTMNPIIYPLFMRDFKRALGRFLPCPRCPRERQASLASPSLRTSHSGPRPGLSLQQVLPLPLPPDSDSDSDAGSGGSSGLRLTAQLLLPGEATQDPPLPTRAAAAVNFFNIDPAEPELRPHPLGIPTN

pKi [1]	pIC50 [7]	pKi [8]	SMILES	other results
8.54			Cl.O=S(=O)(c1ccccc1)c1ccc2c3c(oc2c1)CNCC3	bioavailability [2]: 7%; half-life [3]: < 5 min; half-life [4]: 10 min; half-life [5]: < 5 min; half-life [6]: > 40 min
7.08			Cl.O=S(=O)(c1ccccc1)c1ccc2c(c1)O[C@H]1CNCC[C@@H]21 (racemic)	bioavailability [2]: 15%; half-life [3]: > 40 min; half-life [4]: > 40 min; half-life [5]: > 40 min; half-life [6]: > 40 min
7.49	6.75	6.84	O=S(=O)(c1ccc2c(c1)O[C@H]1CNCC[C@@H]21)c1ccccc1F (racemic)	
7.42	6.88	6.69	O=S(=O)(c1ccc2c(c1)O[C@H]1CNCC[C@@H]21)c1ccccc1Cl (racemic)	
7.82	6.87	6.87	O=S(=O)(c1ccc2c(c1)O[C@H]1CNCC[C@@H]21)c1ccccc1-c1ccccc1 (racemic)	
7.68	7.48	7.28	O=S(=O)(c1cccc(F)c1)c1ccc2c(c1)O[C@H]1CNCC[C@@H]21 (racemic)	
7.96	7.57	7.40	O=S(=O)(c1cccc(Cl)c1)c1ccc2c(c1)O[C@H]1CNCC[C@@H]21 (racemic)	
7.43	6.64	6.61	Cc1cccc(S(=O)(=O)c2ccc3c(c2)O[C@H]2CNCC[C@@H]32)c1 (racemic)	
7.32	6.45		O=S(=O)(c1cccc(C(F)(F)F)c1)c1ccc2c(c1)O[C@H]1CNCC[C@@H]21 (racemic)	
7.07	6.55		COc1cccc(S(=O)(=O)c2ccc3c(c2)O[C@H]2CNCC[C@@H]32)c1 (racemic)	
7.64	6.51	6.81	CC(C)Oc1cccc(S(=O)(=O)c2ccc3c(c2)O[C@H]2CNCC[C@@H]32)c1 (racemic)	
6.25			COCCOc1cccc(S(=O)(=O)c2ccc3c(c2)O[C@H]2CNCC[C@@H]32)c1 (racemic)	
6.69			COCCCOc1cccc(S(=O)(=O)c2ccc3c(c2)O[C@H]2CNCC[C@@H]32)c1 (racemic)	
6.41			O=S(=O)(c1ccc(F)cc1)c1ccc2c(c1)O[C@H]1CNCC[C@@H]21 (racemic)	
7.19	6.61	6.63	Cc1ccc(S(=O)(=O)c2ccc3c(c2)O[C@H]2CNCC[C@@H]32)cc1 (racemic)	
7.31			CC(C)Oc1cc(F)cc(S(=O)(=O)c2ccc3c(c2)O[C@H]2CNCC[C@@H]32)c1 (single isomer, unassigned; enantiomer 1)	
